Experimental data reported in US10442807B2, “Aryl substituted bicyclic compounds as herbicides” (FMC Corporation, priority 2015, dated 2019).

What was measured:
Format in all cases: in vivo
[1] = system: sedge, umbrella (small-flower umbrella sedge, Cyperus difformis); experiment: Test B flooded paddy test, visual plant response rating; details: 250 g ai/ha; applied to paddy water at 2-leaf stage; rated after 13 to 15 days; scale 0 to 100, 0 is no effect, 100 is complete control
Method in brief: (§1)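 Visual 0–100 scores (0 none, 100 complete control) versus controls were taken 13 to 15 days after treatment in a greenhouse. Treatment was applied into flood water kept at 3 cm over the soil surface for the whole test.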

rice (Oryza sativa) = experiment: as above; details: 250 g ai/ha; applied to paddy water at 2-leaf stage; rated after 13 to 15 days; scale 0 to 100, 0 is no effect, 100 is complete control
Method in brief: as §1

[2] = system: ducksalad (Heteranthera limosa); experiment: as above; details: 250 g ai/ha; applied to paddy water at 2-leaf stage; rated after 13 to 15 days; scale 0 to 100, 0 is no effect, 100 is complete control
Method in brief: as §1

[3] = system: barnyardgrass (Echinochloa crus-galli); experiment: as above; details: 250 g ai/ha; applied to paddy water at 2-leaf stage; rated after 13 to 15 days; scale 0 to 100, 0 is no effect, 100 is complete control
Method in brief: as §1

[4] = system: pigweed (Amaranthus retroflexus); experiment: Test A preemergence, directed soil spray, visual injury rating; details: approx. 10 d, 0 = no effect, 100 = complete control
Method in brief: (§2)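 Seeds sown in loam/sand soil got a directed soil spray before emergence, or plants at one- to two-leaf stage (2-10 cm) were sprayed postemergence; chemical in non-phytotoxic solvent with surfactant. Greenhouse approx. 10 d, then visual injury vs untreated controls on 0 (no effect) to 100 (complete control) scale.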

[5] = system: ryegrass, Italian (Italian ryegrass, Lolium multiflorum); experiment: as above; details: approx. 10 d, 0 = no effect, 100 = complete control
Method in brief: as §2

kochia (Kochia scoparia) [6] = experiment: as above; details: approx. 10 d, 0 = no effect, 100 = complete control
Method in brief: as §2

[7] = system: foxtail, giant (giant foxtail, Setaria faberii); experiment: as above; details: approx. 10 d, 0 = no effect, 100 = complete control
Method in brief: as §2

[8] = system: ragweed (common ragweed, Ambrosia elation); experiment: as above; details: approx. 10 d, 0 = no effect, 100 = complete control
Method in brief: as §2

[9] = system: barnyardgrass (Echinochloa crus-galli); experiment: as above; details: approx. 10 d, 0 = no effect, 100 = complete control
Method in brief: as §2

[10] = system: pigweed (Amaranthus retroflexus); experiment: Test A postemergence application, visual injury rating; details: approx. 10 d, 0 = no effect, 100 = complete control
Method in brief: as §2

[11] = system: wheat (Triticum aestivum); experiment: as above; details: approx. 10 d, 0 = no effect, 100 = complete control
Method in brief: as §2

[12] = system: ryegrass, Italian (Italian ryegrass, Lolium multiflorum); experiment: as above; details: approx. 10 d, 0 = no effect, 100 = complete control
Method in brief: as §2

kochia (Kochia scoparia) [13] = experiment: as above; details: approx. 10 d, 0 = no effect, 100 = complete control
Method in brief: as §2

[14] = system: blackgrass (Alopecurus myosuroides); experiment: as above; details: approx. 10 d, 0 = no effect, 100 = complete control
Method in brief: as §2

[15] = system: foxtail, giant (giant foxtail, Setaria faberii); experiment: as above; details: approx. 10 d, 0 = no effect, 100 = complete control
Method in brief: as §2

[16] = system: galium (catchweed bedstraw, Galium aparine); experiment: as above; details: approx. 10 d, 0 = no effect, 100 = complete control
Method in brief: as §2

[17] = system: ragweed (common ragweed, Ambrosia elation); experiment: as above; details: approx. 10 d, 0 = no effect, 100 = complete control
Method in brief: as §2

corn (Zea mays) = experiment: as above; details: approx. 10 d, 0 = no effect, 100 = complete control
Method in brief: as §2

[18] = system: barnyardgrass (Echinochloa crus-galli); experiment: as above; details: approx. 10 d, 0 = no effect, 100 = complete control
Method in brief: as §2

Structure (SMILES)	Plant response rating, Flood, Sedge, Umbrella [1]	Plant response rating, Flood, Rice (rice (Oryza sativa))	Plant response rating, Flood, Ducksalad [2]	Plant response rating, Flood, Barnyardgrass [3]	Pigweed plant response rating (0 to 100 scale) ([4]; 125 g ai/ha)	Pigweed plant response rating (0 to 100 scale) ([4]; 500 g ai/ha)	Ryegrass, Italian plant response rating (0 to 100 scale) ([5]; 125 g ai/ha)	Ryegrass, Italian plant response rating (0 to 100 scale) ([5]; 500 g ai/ha)	Kochia plant response rating (0 to 100 scale) (kochia (Kochia scoparia) [6]; 125 g ai/ha)	Kochia plant response rating (0 to 100 scale) (kochia (Kochia scoparia) [6]; 500 g ai/ha)	Foxtail, Giant plant response rating (0 to 100 scale) ([7]; 125 g ai/ha)	Foxtail, Giant plant response rating (0 to 100 scale) ([7]; 500 g ai/ha)	Ragweed plant response rating (0 to 100 scale) ([8]; 125 g ai/ha)	Ragweed plant response rating (0 to 100 scale) ([8]; 500 g ai/ha)	Barnyardgrass plant response rating (0 to 100 scale) ([9]; 125 g ai/ha)	Barnyardgrass plant response rating (0 to 100 scale) ([9]; 500 g ai/ha)	Pigweed plant response rating (0 to 100 scale) ([10]; 125 g ai/ha)	Pigweed plant response rating (0 to 100 scale) ([10]; 500 g ai/ha)	Wheat plant response rating (0 to 100 scale) ([11]; 125 g ai/ha)	Wheat plant response rating (0 to 100 scale) ([11]; 500 g ai/ha)	also measured
Cc1ccc(C2Cn3c(C)nnc3C2C(=O)Nc2cccc(F)c2F)cc1C (stereo not drawn) [Compound 19]	0	0	20	30	0	0	0	20	0	30	70	90	0	0	50	90	0	0	0	30	Ryegrass, Italian plant response rating (0 to 100 scale) ([12]; 125 g ai/ha): 0; Ryegrass, Italian plant response rating (0 to 100 scale) ([12]; 500 g ai/ha): 20; Kochia plant response rating (0 to 100 scale) (kochia (Kochia scoparia) [13]; 125 g ai/ha): 0; Kochia plant response rating (0 to 100 scale) (kochia (Kochia scoparia) [13]; 500 g ai/ha): 20; Blackgrass plant response rating (0 to 100 scale) ([14]; 125 g ai/ha): 0; Blackgrass plant response rating (0 to 100 scale) ([14]; 500 g ai/ha): 70; Foxtail, Giant plant response rating (0 to 100 scale) ([15]; 125 g ai/ha): 30; Foxtail, Giant plant response rating (0 to 100 scale) ([15]; 500 g ai/ha): 80; Galium plant response rating (0 to 100 scale) ([16]; 125 g ai/ha): 0; Galium plant response rating (0 to 100 scale) ([16]; 500 g ai/ha): 50; Ragweed plant response rating (0 to 100 scale) ([17]; 125 g ai/ha): 0; Ragweed plant response rating (0 to 100 scale) ([17]; 500 g ai/ha): 20; Corn plant response rating (0 to 100 scale) (corn (Zea mays); 125 g ai/ha): 0; Corn plant response rating (0 to 100 scale) (corn (Zea mays); 500 g ai/ha): 30; Barnyardgrass plant response rating (0 to 100 scale) ([18]; 125 g ai/ha): 60; Barnyardgrass plant response rating (0 to 100 scale) ([18]; 500 g ai/ha): 90
O=C(Nc1ccccc1F)C1c2nncn2CC1c1ccc(Cl)cc1 (stereo not drawn) [Compound 20]	0	0	70	40	0	0	0	0	30	90	30	90	0	50	20	70	0	0	0	20	Ryegrass, Italian plant response rating (0 to 100 scale) ([12]; 125 g ai/ha): 0; Ryegrass, Italian plant response rating (0 to 100 scale) ([12]; 500 g ai/ha): 0; Kochia plant response rating (0 to 100 scale) (kochia (Kochia scoparia) [13]; 125 g ai/ha): 0; Kochia plant response rating (0 to 100 scale) (kochia (Kochia scoparia) [13]; 500 g ai/ha): 40; Blackgrass plant response rating (0 to 100 scale) ([14]; 125 g ai/ha): 0; Blackgrass plant response rating (0 to 100 scale) ([14]; 500 g ai/ha): 0; Foxtail, Giant plant response rating (0 to 100 scale) ([15]; 125 g ai/ha): 20; Foxtail, Giant plant response rating (0 to 100 scale) ([15]; 500 g ai/ha): 70; Galium plant response rating (0 to 100 scale) ([16]; 125 g ai/ha): 30; Galium plant response rating (0 to 100 scale) ([16]; 500 g ai/ha): 50; Ragweed plant response rating (0 to 100 scale) ([17]; 125 g ai/ha): 0; Ragweed plant response rating (0 to 100 scale) ([17]; 500 g ai/ha): 20; Corn plant response rating (0 to 100 scale) (corn (Zea mays); 125 g ai/ha): 20; Corn plant response rating (0 to 100 scale) (corn (Zea mays); 500 g ai/ha): 80; Barnyardgrass plant response rating (0 to 100 scale) ([18]; 125 g ai/ha): 20; Barnyardgrass plant response rating (0 to 100 scale) ([18]; 500 g ai/ha): 60
Cc1nnc2n1CC(c1ccc(Cl)cc1)C2C(=O)Nc1ccccc1F (stereo not drawn) [Compound 21]	0	0	40	0	0	0	40	40	0	40	0	70	0	0	0	40	0	0	0	0	Ryegrass, Italian plant response rating (0 to 100 scale) ([12]; 125 g ai/ha): 0; Ryegrass, Italian plant response rating (0 to 100 scale) ([12]; 500 g ai/ha): 20; Kochia plant response rating (0 to 100 scale) (kochia (Kochia scoparia) [13]; 125 g ai/ha): 0; Kochia plant response rating (0 to 100 scale) (kochia (Kochia scoparia) [13]; 500 g ai/ha): 0; Blackgrass plant response rating (0 to 100 scale) ([14]; 125 g ai/ha): 0; Blackgrass plant response rating (0 to 100 scale) ([14]; 500 g ai/ha): 20; Foxtail, Giant plant response rating (0 to 100 scale) ([15]; 125 g ai/ha): 0; Foxtail, Giant plant response rating (0 to 100 scale) ([15]; 500 g ai/ha): 70; Galium plant response rating (0 to 100 scale) ([16]; 125 g ai/ha): 0; Galium plant response rating (0 to 100 scale) ([16]; 500 g ai/ha): 50; Ragweed plant response rating (0 to 100 scale) ([17]; 125 g ai/ha): 0; Ragweed plant response rating (0 to 100 scale) ([17]; 500 g ai/ha): 0; Corn plant response rating (0 to 100 scale) (corn (Zea mays); 125 g ai/ha): 0; Corn plant response rating (0 to 100 scale) (corn (Zea mays); 500 g ai/ha): 0; Barnyardgrass plant response rating (0 to 100 scale) ([18]; 125 g ai/ha): 0; Barnyardgrass plant response rating (0 to 100 scale) ([18]; 500 g ai/ha): 40
